Laboratory results taken from US7098215B2, “Nitrogenous compounds and antiviral drugs containing the same” (Kureha Chemical Industry Co., Ltd., priority 2000, dated 2006).

Tested on: HIV-1IIIB infected MT-4 cells
Assay: Anti-HIV activity: protection of HIV-1IIIB infected MT-4 cells, MTT method
Format: cell-based
Settings: MOI 0.01, culture for 5 days, concentration inhibiting 50% of cytotoxicity due to HIV infection
Experimental: HIV-1IIIB infected MT-4 cells were added to 96-well microtiter plates (3.0×10^4/well, MOI (Multiplicity of infection): 0.01), together with test compounds at different concentrations immediately after the infection. After culture for 5 days in a carbon dioxide incubator at 37° C., the number of surviving cells was counted by MTT (tetrazolium) method (Pawels et al., J. Virol. Methods, 20, 309-321, 1988).

First: Cn1cccc1CNCCC[C@H](NC(=O)c1ccc(CNCc2ccccn2)cc1)C(=O)NCc1cccc2ccccc12 [Compound No. 5, (S)-2-(4-(N-2-picolylaminomethyl)benzoylamino)-5-((1-methylpyrrol-2-ylmethyl)amino)valeric acid 1-naphthalenemethylamide]
Second: O=C(N[C@@H](CCCNCc1ccccn1)C(=O)NCc1cccc2ccccc12)c1ccc(CNCc2ccccn2)cc1 [Compound No. 60, (S)-2-(4-(N-2-picolylaminomethyl)benzoylamino)-5-(N-2-picolylamino)valeric acid 1-naphthalenemethylamide]
The EC50 of the first is 5.1-fold higher: 804 nM for the first, 158 nM for the second. The second is the more potent here.

Compared with `O=C(N[C@@H](CCCNCc1ncc[nH]1)C(=O)NCc1cccc2ccccc12)c1ccc(CNCc2ncc[nH]2)cc1` [Compound No. 21, (S)-2-(4-((imidazol-2-ylmethyl)aminomethyl)benzoylamino)-5-((imidazol-2-ylmethyl)amino)valeric acid 1-naphthalenemethylamide], `N=C(N)NCCC[C@H](NC(=O)c1ccc(CNCc2ncc[nH]2)cc1)C(=O)NCc1cccc2ccccc12` [Compound No. 53, N^α-(4-(imidazol-2-ylmethyl)aminomethylbenzoyl)-L-arginine 1-naphthalenemethylamide] is 5.5-fold lower in EC50: 828 nM for the first, 150 nM for the second. The second is the more potent here.

Going from `C[C@H](NC(=O)[C@H](CCCNC(=N)N)NC(=O)c1ccc(CNCc2ncc[nH]2)cc1)c1cccc2ccccc12` [Compound No. 95, N^α-4-(N-2-(imidazol-2-ylmethyl)aminomethyl)benzoyl-L-arginine (1′S)-1′-(1-naphthyl)ethylamide] to `C[C@H](NC(=O)[C@H](CCCNC1=NCCN1)NC(=O)c1ccc(CNCc2ncc[nH]2)cc1)c1cccc2ccccc12` [Compound No. 110, (S)-2-(4-((N-imidazol-2-ylmethyl)aminomethyl)benzoyl)amino-5-(4,5-dihydroimidazol-2-yl)aminovaleric acid (1′S)-1′-(1-naphthyl)ethylamide], the EC50 rises from 175 nM to 344 nM (2-fold). The first is the more potent here.

Going from `Cn1cccc1CNCCC[C@H](NC(=O)c1ccc(CNCc2nccn2C)cc1)C(=O)NCc1cccc2ccccc12` [Compound No. 30, (S)-2-(4-((1-methylimidazol-2-ylmethyl)aminomethyl)benzoylamino)-5-((1-methylpyrrol-2-ylmethyl)amino)valeric acid 1-naphthalenemethylamide] to `O=C(N[C@@H](CCNCc1ccccn1)C(=O)NCc1cccc2ccccc12)c1ccc(CNCc2ccccn2)cc1` [Compound No. 61, (S)-2-(4-(N-2-picolylamino)methylbenzoylamino)-4-(N-2-picolylamino)butyric acid 1-naphthalenemethylamide], the EC50 rises from 662 nM to 2620 nM (4-fold).

Compared with `C[C@H](NC(=O)[C@H](CCCNC1CCCc2cccnc21)NC(=O)c1ccc(CNCc2ccccn2)nc1)c1cccc2ccccc12` (stereo partly drawn) [Compound No. 83, (2S)-2-(2-(N-2-picolylaminomethyl)pyridin-5-ylcarbonyl)amino-5-(5,6,7,8-tetrahydroquinolin-8-yl)aminovaleric acid (1′S)-1′-(1-naphthyl)ethylamide], `C[C@H](NC(=O)[C@H](CCCNC1CCCc2cccnc21)NC(=O)c1ccc(CNCc2ccccn2)c2ccccc12)c1cccc2ccccc12` (stereo partly drawn) [Compound No. 85, (2S)-2-(4-(N-2-picolylaminomethyl)naphthoyl)amino-5-(5,6,7,8-tetrahydroquinolin-8-yl)aminovaleric acid (1′S)-1′-(1-naphthyl)ethylamide] is 4.2-fold lower in EC50: 121 nM for the first, 29 nM for the second.

First: O=C(N[C@@H](CCCNC1CCCc2cccnc21)C(=O)NCc1cccc2ccccc12)c1ccc(CNCc2ncc[nH]2)s1 (stereo partly drawn) [Compound No. 16, (2S)-2-(5-(N-(imidazol-2-ylmethyl)aminomethyl)thiophene-2-carbonylamino)-5-(5,6,7,8-tetrahydroquinolin-8-yl)aminovaleric acid 1-naphthalenemethylamide]
Second: NC(N)=NCCC[C@H](NC(=O)c1ccc(CNCc2ccccn2)cc1)C(=O)NCc1cccc2ccccc12 [Compound No. 43, N^α-(4-(N-2-picolylaminomethyl)benzoyl)-L-arginine 1-naphthalenemethylamide]
The EC50 of the first is 5.4-fold higher: 633 nM for the first, 118 nM for the second. The second is the more potent here.
